In US10640534B2 (Agios Pharmaceuticals, Inc., priority 2012, dated 2020):

What was measured:
IDH1 R132C = IDH1 R132C (Homo sapiens (Human), UniProt O75874, R132C); test: In vitro NADPH depletion assay for IDH1m R132C inhibitors; format: biochemical; conditions: enzyme, read-out: IDH R132C IC50
Protocol: A test compound is prepared as 10 mM stock in DMSO and diluted to 50× final concentration in DMSO, for a 50 μl reaction mixture. IDH enzyme activity converting alpha-ketoglutarate to 2-hydroxyglutaric acid is measured using a NADPH depletion assay. In the assay the remaining cofactor is measured at the end of the reaction with the addition of a catalytic excess of diaphorase and resazurin, to generate a fluorescent signal in proportion to the amount of NADPH remaining. […] The reaction is started with the addition of 10 μl of Substrate Mix ([…], 5 mM alpha-ketoglutarate, in Assay Buffer) and the mixture is incubated for 90 minutes at room temperature.
The concentration of NADPH and alpha-ketoglutarate in the Substrate Buffer is 20 μM and 1 mM, respectively.

HT1080 cells = test: Cellular assay, inhibition of 2-HG production in HT1080 cells; format: cell-based; conditions: Homo sapiens, HT-1080, 48 h
Protocol: Cells (HT1080 or U87MG) are grown in T125 flasks in DMEM containing 10% FBS, 1× penicillin/streptomycin and 500 ug/mL G418 (present in U87MG cells only). They are harvested by trypsin and seeded into 96 well white bottom plates at a density of 5000 cell/well in 100 ul/well in DMEM with 10% FBS. […] Cells are incubated overnight at 37° C. in 5% CO2. The next day test compounds are made up at 2× the final concentration and 100 ul are added to each cell well. The final concentration of DMSO is 0.2% and the DMSO control wells are plated in row G. The plates are then placed in the incubator for 48 hours. […] The cell plate is placed back in the incubator for another 24 hours. At 72 hours post compound addition, 10 mL/plate of Promega Cell Titer Glo reagent is thawed and mixed. The cell plate is removed from the incubator and allowed to equilibrate to room temperature. Then 100 ul of Promega Cell Titer Glo reagent is added to each well of media. The cell plate is then placed on an orbital shaker for 10 minutes and then allowed to sit at room temperature for 20 minutes. The plate is then read for luminescence with an integration time of 500 ms.

U87MG cells = test: Cellular assay, inhibition of 2-HG production in U87MG cells; format: cell-based; conditions: Homo sapiens, U-87 MG, 48 h
Method in brief: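 HT1080 or U87MG cells (U87MG kept with 500 ug/mL G418) seeded at 5000 cells/well and treated with compound at 0.2% final DMSO. Incubated 48 h at 37 °C. 2-HG inhibition determined by LC-MS. Viability read by CellTiter-Glo luminescence at 72 h post-dose.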

IDH1 R132C, sequence (O75874 whole entry R132C): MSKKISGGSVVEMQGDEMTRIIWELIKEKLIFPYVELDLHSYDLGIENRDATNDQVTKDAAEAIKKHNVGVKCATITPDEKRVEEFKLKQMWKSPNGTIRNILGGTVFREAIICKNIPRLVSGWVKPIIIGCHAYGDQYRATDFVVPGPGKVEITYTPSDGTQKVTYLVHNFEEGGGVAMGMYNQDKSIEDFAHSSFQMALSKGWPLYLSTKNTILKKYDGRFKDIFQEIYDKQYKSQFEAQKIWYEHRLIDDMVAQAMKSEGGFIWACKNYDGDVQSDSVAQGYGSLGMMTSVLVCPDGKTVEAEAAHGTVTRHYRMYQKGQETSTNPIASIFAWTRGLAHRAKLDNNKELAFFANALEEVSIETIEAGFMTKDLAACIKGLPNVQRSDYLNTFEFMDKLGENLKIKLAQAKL

IC50 (IDH1 R132C) | IC50 (HT1080 cells) | IC50 (U87MG cells) | SMILES
100 to 500 nM | – | – | O=C(NC1CC(F)(F)C1)[C@H](c1ccccc1Cl)N(C(=O)[C@@H]1CCC(=O)N1c1ccncn1)c1cccc(F)c1 [Compound 22]
– | < 100 nM | < 100 nM | N#Cc1cncc(N(C(=O)[C@@H]2CCC(=O)N2c2cc(C#N)ccn2)[C@H](C(=O)NC2CC(F)(F)C2)c2ccccc2)c1 [Compound 212]
